Columns and labels:
Prothrombin = Prothrombin (Homo sapiens, UniProt P00734); test: Inhibitory activity against thrombin
Caco-2 = test: Apparent permeability coefficient (Papp) from the apical to basolateral side in the human Caco-2 monolayer was determined; format: functional
Homo sapiens = species: Homo sapiens; test: Concentration of compound required to double the human activated partial thromboplastin time; format: functional
[1] = Half life on i.v. administration of 2 mg/kg was measured in dog; format: ADME, organism-based, Canis lupus familiaris; parameters: dose 2 mg/kg, route intravenous; conditions: in vivo, iv
[2] = Cmax on p.o. administration of 10 mg/kg was measured in dog; format: ADME, organism-based, Canis lupus familiaris; parameters: dose 10 mg/kg, route oral; conditions: in vivo, po
[3] = Bioavailability in dog; format: ADME, organism-based, Canis lupus familiaris; conditions: in vivo
[4] = Clearance on i.v. administration of 2 mg/kg was measured in dog; format: ADME, organism-based, Canis lupus familiaris; parameters: dose 2 mg/kg, route intravenous; conditions: in vivo, iv
[5] = Vss on i.v. administration of 2 mg/kg was measured in dog; format: ADME, organism-based, Canis lupus familiaris; parameters: dose 2 mg/kg, route intravenous; conditions: in vivo, iv, read-out: Vss

Row | Structure (SMILES) | Ki (Prothrombin) [nM] | other results
1 | CCN(Cc1ccncc1)C(=O)c1cc(Cl)cc(OCCCONC(=N)N)c1 | 1600 | 
2 | N=C(N)NOCCCOc1cc(Cl)cc(C(=O)N(CCC(=O)O)CC2CC2)c1 | 213 | 
3 | CCCN(Cc1ccoc1)C(=O)c1cc(C)cc(OCCCON=C(N)N)c1 |  | Activity (Caco-2): 4.05e-06 cm/s; 2 x APTT (Homo sapiens): 11.5 µM
4 | N=C(N)NOCCCOc1cc(Cl)cc(C(=O)N2CCC(Cc3ccccc3)CC2)c1 | 1500 | 
5 | Cc1cc(OCC2(CON=C(N)N)CC2)cc(C(=O)N(Cc2ccoc2)CC2CC2)c1 |  | Activity (Caco-2): 2.17e-06 cm/s; 2 x APTT (Homo sapiens): 8.7 µM
6 | Cc1cc(OCCCON=C(N)N)cc(C(=O)N(Cc2ccoc2)C(C)C)c1 | 68 | 
7 | CCSCCN(Cc1ccoc1)C(=O)c1cc(C)cc(OCCCON=C(N)N)c1 | 6 | 
8 | Cc1cc(OCC2(CONC(=N)N)CC2)cc(C(=O)N(Cc2ccoc2)CC2CC2)c1 | 4 | half-life [1]: 5.9 h; Cmax [2]: 4.1 µM; bioavailability [3]: 77%; clearance [4]: 5.7 mL/min/kg; Vd [5]: 2.5 L/kg
9 | N=C(N)NOCCCOc1cc(Cl)cc(C(=O)N2CCN(c3ccccn3)CC2)c1 | 640 | 
10 | N=C(N)NOCCCOc1cc(Cl)cc(C(=O)N(CCN2CCCC2)CC2CC2)c1 | 204 | 
11 | Cc1cc(OCCCONC(=N)N)cc(C(=O)N(Cc2ccncc2)CC2CC2)c1 | 24 | 
12 | COCCN(CC1CC1)C(=O)c1cc(Cl)cc(OCCCONC(=N)N)c1 | 156 | 
13 | N=C(N)NOCCCOc1cc(Cl)cc(C(=O)N2CCCCCC2)c1 | 470 | 
14 | Cc1cc(OCCCON=C(N)N)cc(C(=O)N(Cc2ccoc2)CC2CCCCC2)c1 | 21 | 
15 | CN(C(=O)c1cc(Cl)cc(OCCCONC(=N)N)c1)C1CCCC1 | 373 | 
16 | CCN(Cc1ccccc1)C(=O)c1cc(Cl)cc(OCCCONC(=N)N)c1 | 91 | 
17 | C=CCN(C(=O)c1cc(C)cc(OCCCONC(=N)N)c1)C1CCCC1 | 10 | half-life [1]: 3.7 h; Cmax [2]: 3.7 µM; bioavailability [3]: 89%; clearance [4]: 11.2 mL/min/kg; Vd [5]: 2.8 L/kg
18 | CCCN(Cc1ccccn1)C(=O)c1cc(C)cc(OCCCON=C(N)N)c1 | 94 | 

Row | Structure (SMILES) | Ki (Prothrombin) [nM] | other results
19 | CCCN(CC1CC1)C(=O)c1cc(Cl)cc(OCCCONC(=N)N)c1 | 23 | 
20 | C=CCN(Cc1cccs1)C(=O)c1cc(Cl)cc(OCCCONC(=N)N)c1 | 147 | 
21 | N=C(N)NOCCCOc1cc(Cl)cc(C(=O)N(CCN2CCOCC2)CC2CC2)c1 | 159 | 
22 | Cc1cc(OCCCONC(=N)N)cc(C(=O)N(Cc2ccoc2)C2CCC2)c1 | 22 | 
23 | CCCN(Cc1ccc(F)cc1)C(=O)c1cc(C)cc(OCCCON=C(N)N)c1 | 21 | 
24 | CCCN(Cc1ccoc1)C(=O)c1cc(C)cc(OCC2(CON=C(N)N)CC2)c1 |  | half-life [1]: 4.4 h; Cmax [2]: 5.8 µM; bioavailability [3]: 73%; clearance [4]: 4.2 mL/min/kg; Vd [5]: 1.7 L/kg; Activity (Caco-2): 4.11e-06 cm/s
25 | N=C(N)NOCCCOc1cc(Cl)cc(C(=O)N2CCc3ccccc3C2)c1 | 171 | 
26 | C=CCN(C(=O)c1cc(C)cc(OCCCON=C(N)N)c1)C1CCCC1 |  | Activity (Caco-2): 4.86e-06 cm/s; 2 x APTT (Homo sapiens): 11.3 µM
27 | CCCN(Cc1nccs1)C(=O)c1cc(C)cc(OCCCONC(=N)N)c1 | 195 | 
28 | N=C(N)NOCCCOc1cc(Cl)cc(C(=O)N2CCN(c3ccccc3)CC2)c1 | 2900 | 
29 | Cc1cc(OCCCONC(=N)N)cc(C(=O)N(Cc2ccoc2)CC2CC2)c1 | 11 | half-life [1]: 2.5 h; Cmax [2]: 5.1 µM; bioavailability [3]: 68%; clearance [4]: 7.8 mL/min/kg; Vd [5]: 1.6 L/kg
30 | Cc1cc(OCCCON=C(N)N)cc(C(=O)N(Cc2ccoc2)CC2CC2)c1 |  | Activity (Caco-2): 3e-06 cm/s; 2 x APTT (Homo sapiens): 8.4 µM
31 | CCCN(Cc1ccncc1)C(=O)c1cc(C)cc(OCCCONC(=N)N)c1 | 73 | 
32 | Cc1cc(OCCCONC(=N)N)cc(C(=O)N(Cc2ccccn2)CC2CC2)c1 | 86 | 
33 | CCN(C(=O)c1cc(C)cc(OCCCONC(=N)N)c1)C1CCCCC1 | 6 | 
34 | Cc1cc(OCCCONC(=N)N)cc(C(=O)N(CCC(N)=O)Cc2ccoc2)c1 | 110 | 
35 | CCCN(CC1CCC1)C(=O)c1cc(Cl)cc(OCCCON=C(N)N)c1 | 16 | 
36 | N=C(N)NOCCCOc1cc(Cl)cc(C(=O)N2CCCCC2)c1 | 880 | 

Further lines, with some results ahead:

Row | Ki (Prothrombin) [nM] | Structure (SMILES) | other results
37 | 7 | Cc1cc(OCCCON=C(N)N)cc(C(=O)N(CCC(C)C)Cc2ccoc2)c1 | 
38 | 52 | N=C(N)NOCCCOc1cc(Cl)cc(C(=O)N(CCc2ccncc2)CC2CC2)c1 | 
39 | 38 | COC(=O)CCN(CC1CC1)C(=O)c1cc(Cl)cc(OCCCONC(=N)N)c1 | 
40 | 33 | CN(C(=O)c1cc(Cl)cc(OCCCON=C(N)N)c1)C1CCCCC1 | 
41 | 9 | CCCN(Cc1ccoc1)C(=O)c1cc(C)cc(OCCCONC(=N)N)c1 | half-life [1]: 3.8 h; Cmax [2]: 4.5 µM; bioavailability [3]: 62%; clearance [4]: 10.1 mL/min/kg; Vd [5]: 2.4 L/kg
42 | 48 | C[C@H](CS)C(=O)N1CCC[C@H]1C(=O)O [CAPTOPRIL] | 
43 | 38 | CCCN(CC1CCCC1)C(=O)c1cc(Cl)cc(OCCCONC(=N)N)c1 | 
44 | 59 | N=C(N)NOCCCOc1cc(Cl)cc(C(=O)N(CCc2ccccn2)CC2CC2)c1 | 
45 | 8 | Cc1cc(OCCCONC(=N)N)cc(C(=O)N(CCCCCC(N)=O)C2CCCCC2)c1 | 
46 | 8 | CCCCN(Cc1ccoc1)C(=O)c1cc(C)cc(OCCCONC(=N)N)c1 | 
47 | 34 | Cc1cc(OCCCONC(=N)N)cc(C(=O)N(Cc2cccnc2)CC2CC2)c1 | 
48 | 20 | C=CCN(Cc1ccoc1)C(=O)c1cc(Cl)cc(OCCCONC(=N)N)c1 | 
49 | 28 | COCCN(Cc1ccoc1)C(=O)c1cc(C)cc(OCCCON=C(N)N)c1 | 
50 | 17 | CCCN(CC1CCC1)C(=O)c1cc(C)cc(OCCCON=C(N)N)c1 | 
51 | 65 | CCOC(=O)CCN(CC1CC1)C(=O)c1cc(C)cc(OCCCONC(=N)N)c1 | 
52 | 52 | CCCN(Cc1cccnc1)C(=O)c1cc(C)cc(OCCCONC(=N)N)c1 | 
53 | 47 | N=C(N)NOCCCOc1cc(Cl)cc(C(=O)N(CCc2cccnc2)CC2CC2)c1 | 
54 | 31 | Cc1cc(OCCCONC(=N)N)cc(C(=O)N(Cc2ccsc2)CC2CC2)c1 | 
55 | 9 | C=CCN(C(=O)c1cc(C)cc(OCCCONC(=N)N)c1)C1CCCCC1 | 
56 | 17 | N=C(N)NOCCCOc1cc(Cl)cc(C(=O)N(Cc2ccoc2)CC2CC2)c1 | 

— ChEMBL document CHEMBL1146801, “Oxyguanidines. Part 2: Discovery of a novel orally active thrombin inhibitor through structure-based drug design and parallel synthesis” (Bioorg Med Chem Lett, 2004)
